Assays:
Enterococcus faecalis = assay: VITEK2 Compact AST (AST-P639 cards), gold standard culture-based AST; type: cell-based
Streptococcus pneumoniae = assay: VITEK2 Compact AST (AST-GP68 cards) with penicillin disc diffusion, gold standard culture-based AST; type: cell-based
Protocol: (§1) Step 1. Drug susceptibility verification: The Streptococcus pneumoniae isolates were tested for drug susceptibility using bioMérieux Vitek2 Compact System and AST-GP68 cards, and specifically, the susceptibility of penicillin was double checked by disc diffusion method (OXOID, CT0043B), and the combined results were used as the gold standard (culture-based AST).
as §1, with “Sample collection and drug” for “Drug”, “48 clinical” for “The”, “pneumoniae isolates were collected from 18 hospitals across china in a period between May 2017 and October 2019. All” for “pneumoniae”, “card,” for “cards,”

[1] = Resistance profile classification A
[2] = Resistance profile classification B
[3] = Resistance profile classification C
[4] = Resistance profile classification D
[5] = Resistance profile classification F (first line so labelled, r12)
[6] = Resistance profile classification F (second line so labelled, r13)
[7] = Resistance profile classification G
[8] = Resistance profile classification H
[9] = Resistance profile classification I
[10] = Resistance profile classification J
[11] = Resistance profile classification K
[12] = Resistance profile classification L
[13] = Resistance profile classification M
[14] = Resistance profile classification S
Also: key: ‘R’ indicates drug-resistant; ‘S’ indicates drug-susceptible.

Row | Compound | Susceptibility of Emterococcus faecalis to 11 antibacterial drugs (Enterococcus faecalis; [1]) | Susceptibility of Emterococcus faecalis to 11 antibacterial drugs (Enterococcus faecalis; [2]) | Susceptibility of Emterococcus faecalis to 11 antibacterial drugs (Enterococcus faecalis; [3]) | Susceptibility of Emterococcus faecalis to 11 antibacterial drugs (Enterococcus faecalis; [4]) | Susceptibility of Emterococcus faecalis to 11 antibacterial drugs (Enterococcus faecalis; [5]) | Susceptibility of Emterococcus faecalis to 11 antibacterial drugs (Enterococcus faecalis; [6]) | Susceptibility of Emterococcus faecalis to 11 antibacterial drugs (Enterococcus faecalis; [7]) | Susceptibility of Emterococcus faecalis to 11 antibacterial drugs (Enterococcus faecalis; [8]) | Susceptibility of Emterococcus faecalis to 11 antibacterial drugs (Enterococcus faecalis; [9]) | Susceptibility of Emterococcus faecalis to 11 antibacterial drugs (Enterococcus faecalis; [10]) | Susceptibility of Emterococcus faecalis to 11 antibacterial drugs (Enterococcus faecalis; [11]) | Susceptibility of Emterococcus faecalis to 11 antibacterial drugs (Enterococcus faecalis; [12]) | Susceptibility of Emterococcus faecalis to 11 antibacterial drugs (Enterococcus faecalis; [13]) | Susceptibility of Emterococcus faecalis to 11 antibacterial drugs (Enterococcus faecalis; [14]) | Blind 1 by AST (Streptococcus pneumoniae) | blind 2 by AST (Streptococcus pneumoniae) | further results
1 | C[C@H]1COc2c(N3CCN(C)CC3)c(F)cc3c(=O)c(C(=O)O)cn1c23 [levofloxacin] | R | R | R | R | S | S | R | S | R | S | R | R | S | 8 | S | S | 
2 | CC(=O)NC[C@H]1CN(c2ccc(N3CCOCC3)c(F)c2)C(=O)O1 [linezolid] | S | S | S | S |  |  | S | S | S | S | S | S | S | S | S | S | 
3 | C[C@@H](O)[C@H]1C(=O)N2C(C(=O)O)=C(S[C@@H]3CN[C@H](C(=O)N(C)C)C3)[C@H](C)[C@H]12 [meropenem] |  |  |  |  |  |  |  |  |  |  |  |  |  |  | S | S | 
4 | COc1c(N2C[C@@H]3CCCN[C@@H]3C2)c(F)cc2c(=O)c(C(=O)O)cn(C3CC3)c12 [moxifloxacin] |  |  |  |  |  |  |  |  |  |  |  |  |  |  | S | S | 
5 | CN(C)[C@@H]1C(O)=C(C(N)=O)C(=O)[C@@]2(O)C(O)=C3C(=O)c4c(O)cccc4[C@@](C)(O)[C@H]3C[C@@H]12 [tetracycline] | R | S | S | S | S | R | R | R | S | R | R | S | R | S | R | R | Susceptibility of Streptococcus pneumoniae to 14 antibacterial drugs (Streptococcus pneumoniae; [1]): R; Susceptibility of Streptococcus pneumoniae to 14 antibacterial drugs (Streptococcus pneumoniae; [2]): R; Susceptibility of Streptococcus pneumoniae to 14 antibacterial drugs (Streptococcus pneumoniae; [3]): S; Susceptibility of Streptococcus pneumoniae to 14 antibacterial drugs (Streptococcus pneumoniae; [4]): S; Susceptibility of Streptococcus pneumoniae to 14 antibacterial drugs (Streptococcus pneumoniae; Resistance profile classification E): S; Susceptibility of Streptococcus pneumoniae to 14 antibacterial drugs (Streptococcus pneumoniae; Resistance profile classification F): S; Susceptibility of Streptococcus pneumoniae to 14 antibacterial drugs (Streptococcus pneumoniae; [7]): S; Susceptibility of Streptococcus pneumoniae to 14 antibacterial drugs (Streptococcus pneumoniae; [8]): S; Susceptibility of Streptococcus pneumoniae to 14 antibacterial drugs (Streptococcus pneumoniae; [9]): S; Susceptibility of Streptococcus pneumoniae to 14 antibacterial drugs (Streptococcus pneumoniae; [10]): R; Susceptibility of Streptococcus pneumoniae to 14 antibacterial drugs (Streptococcus pneumoniae; [14]): S
6 | CN(C)c1cc(NC(=O)CNC(C)(C)C)c(O)c2c1C[C@H]1C[C@H]3[C@H](N(C)C)C(O)=C(C(N)=O)C(=O)[C@@]3(O)C(O)=C1C2=O [tigecycline] | S | S | S | S | S | S | S | S | S | S | S | S |  | S |  |  | 
7 | high-level gentamicin [HLAR] | R | R | S | S | S | S | R | R | R | S | S | S | S | S |  |  | 
